According to publication PMC8145986, “In Vitro Enzymatic and Kinetic Studies, and In Silico Drug-Receptor Interactions, and Drug-Like Profiling of the 5-Styrylbenzamide Derivatives as Potential Cholinesterase and β-Secretase Inhibitors with Antioxidant Properties” (Antioxidants, 2021):

Key:
[1] = DPPH radical scavenging assay; conditions: read-out: IC50 (SD) DPPH
Method: The antioxidant activities of the test compounds against ascorbic acid (Sigma Aldrich, Saint Louis, MO, USA) as a positive control were evaluated using a 2,2-diphenyl-1-picrylhydrazyl (DPPH) radical scavenging assay developed by Zhu et al., as described in our previous study. Duplicate solutions (20 μL) of the test compounds and ascorbic acid in DMSO (final concentrations: 5, 10, 25, 50, and 100 μM) were added into each designated well of a 96-well plate. A solution of DPPH (0.20 mM) (20 μL) in methanol was added to each well, and the 96-well plate was wrapped with aluminium foil and incubated in the dark for 45 min. Five absorbance readings were recorded at 512 nm using a Varioskan flash microplate spectrophotometer reader. The average values obtained from the absorbance readings were used to determine the IC50 and standard deviation values.

[2] = Nitric oxide radical scavenging assay (Griess reaction); conditions: NO radical scavenging
Method: Nitric oxide was generated from sodium nitroprusside and measured by Griess’ reaction following the literature method. The experiment was done in triplicate with ascorbic acid (vitamin C) used as a positive control for the assay. In total, 50 μL of each of the test compounds and the positive control at various concentrations (0.1, 0.5, 1.0, 5.0, and 10.0 μM in methanol) were added to each designated well of the 96 well plate. A total of 50 μL of sodium nitroprusside (10 mM) prepared in saline phosphate buffer (pH = 7.4) was then added to each well and the reaction mixture incubated at room temperature for 3 h. Afterward, 300 μL of the Griess reagent (a mixture of 0.2% N-(1-naphthyl)ethylenediamine dihydrochloride and 2% sulfanilamide in […]) was added to each well and absorbance was read at 546 nm using a Varioskan flash microplate spectrophotometer reader.

[3] = test system: BChE; design: method as in PMID 23722618; conditions: cited from earlier work
[4] = molecular target: T1, AChE (Homo sapiens, UniProt P22303); assay: biochemical; conditions: mean ± SD of three independent experiments
T1 construct: purchased BioLegend (via Biocom Africa (Pty) Ltd.)
T1 sequence (P22303 32-614): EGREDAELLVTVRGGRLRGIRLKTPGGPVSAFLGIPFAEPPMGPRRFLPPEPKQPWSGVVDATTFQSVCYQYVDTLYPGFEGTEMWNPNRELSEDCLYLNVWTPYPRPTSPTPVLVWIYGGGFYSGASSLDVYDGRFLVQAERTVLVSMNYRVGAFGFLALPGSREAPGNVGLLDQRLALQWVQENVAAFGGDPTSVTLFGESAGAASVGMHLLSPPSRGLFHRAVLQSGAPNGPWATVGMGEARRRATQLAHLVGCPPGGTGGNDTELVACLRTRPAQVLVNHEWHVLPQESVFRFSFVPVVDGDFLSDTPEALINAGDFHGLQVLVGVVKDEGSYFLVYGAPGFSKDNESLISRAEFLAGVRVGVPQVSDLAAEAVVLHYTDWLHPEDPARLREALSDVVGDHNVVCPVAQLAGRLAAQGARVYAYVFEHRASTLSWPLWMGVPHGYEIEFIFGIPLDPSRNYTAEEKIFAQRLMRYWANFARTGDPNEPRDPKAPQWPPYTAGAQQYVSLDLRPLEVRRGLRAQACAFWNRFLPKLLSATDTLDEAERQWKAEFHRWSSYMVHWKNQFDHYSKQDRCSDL
Method: (§1) The melting point values of the test compounds were recorded on a Thermocouple digital melting point apparatus (Mettler Toledo LLC, Columbus, OH, USA). The infrared (IR) spectra were recorded using the thin-film method on a Bruker VERTEX 70 FT-IR Spectrometer (Bruker Optics, Billerica, MA, USA) equipped with an ATR (diamond attenuated total reflectance) accessory. Merck kieselgel 60 (0.063–0.200 mm) (Merck KGaA, Frankfurt, Germany) was used as a stationary phase for column chromatography. The ^1H-NMR and ^13C-NMR spectra of the prepared compounds were obtained as deuterated dimethyl sulfoxide ((CD3)2SO) solutions using Agilent 500 MHz NMR spectrometer (Agilent Technologies, Oxford, UK) operating at 500 MHz and 125 MHz for ^1H and ^13C, respectively. The chemical shifts are quoted relative to tetramethylsilane (TMS) used as an internal reference standard (δ = 0.00 ppm) or a residual protonated solvent. The high-resolution mass spectra were recorded at an ionization potential of 70 eV using Micromass Autospec-TOF (double focusing high resolution) instrument (Waters Corp., Milford, MA, USA). The synthesis and analytical data for 2-amino-5-iodobenzamide (1) have been reported in our previous study. Recombinant human AChE (BioLegend) and BChE (Cloud-Clone Corp.) were purchased via Biocom Africa (Pty) Ltd. (Centurion, Pretoria, South Africa).
(§2) AChE and BChE were used to determine cholinesterase activities spectrophotometrically using […] as substrates, respectively, following a modification of the Ellman’s method, as described in our previous study, and the reactions were performed in triplicate at 37 °C in a 96-well plate. […] A multi-channel pipette was used for the addition of reagents to the wells.
To each well of a 96-well plate, 8.0 μL solution of the test compound, 2.0 μL of AChE (0.04 mg/mL), and 70 μL of Tris buffer (C4H11NO3, 50 mM, pH 7.7) were added sequentially. The assay mixture was pre-incubated for 30 min at room temperature, which was followed by the addition of 10 μL of 5,5′-dithiobis-(2-nitrobenzoic acid) (DTNB, 3 mM in Tris buffer, 50 mM, pH 7.7) and 10 μL of […] (AChI, 5 mM in tris buffer, 50 mM, pH 7.7) to each well to initiate the reaction. […] The average values obtained from the absorbance readings were used to determine the IC50 and standard deviation values using the Graph Pad Prism (version 5.0, GraphPad software Inc., San Diego, CA, USA).

[5] = molecular target: T2, β-secretase (Homo sapiens, UniProt P56817); assay: β-Secretase (BACE-1) inhibition assay; assay type: biochemical; conditions: mean ± SD of three independent experiments
T2 construct: purchased Thermo Fisher Scientific Corporation; host or cells: baculovirus-expressed
T2 sequence (P56817 46-501): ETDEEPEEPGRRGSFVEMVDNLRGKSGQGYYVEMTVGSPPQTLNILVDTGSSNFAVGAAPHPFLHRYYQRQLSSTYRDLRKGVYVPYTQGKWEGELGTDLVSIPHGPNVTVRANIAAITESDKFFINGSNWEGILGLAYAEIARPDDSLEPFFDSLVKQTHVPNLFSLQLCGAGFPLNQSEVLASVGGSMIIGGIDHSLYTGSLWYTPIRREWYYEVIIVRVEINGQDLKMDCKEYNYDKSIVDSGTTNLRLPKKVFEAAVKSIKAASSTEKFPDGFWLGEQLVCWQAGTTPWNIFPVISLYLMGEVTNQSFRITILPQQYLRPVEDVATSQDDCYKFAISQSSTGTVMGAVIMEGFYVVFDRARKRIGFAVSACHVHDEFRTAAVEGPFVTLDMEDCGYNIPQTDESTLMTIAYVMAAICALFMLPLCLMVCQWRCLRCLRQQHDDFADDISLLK
Method: The β-secretase inhibitory activities of the test compounds were assayed in triplicates in 96-well plates using a recombinant baculovirus-expressed β-secretase and a specific substrate (Rh-[…]-Quencher), according to the manufacturer’s (Thermo Fisher Scientific Corporation, Johannesburg, Gauteng, South Africa) instructions, as described in our previous study. […] To each well, 2.0 μL human recombinant β-secretase (1.0 U/mL) was added to start the reaction and the reaction mixture was incubated for 60 min at room temperature. […] The IC50 and standard deviation values of both the test compounds and reference standard were calculated using the Graph Pad Prism.

[6] = molecular target: T3, BChE (Homo sapiens, UniProt P06276); assay: biochemical; conditions: mean ± SD of three independent experiments
T3 construct: purchased Cloud-Clone Corp. (via Biocom Africa (Pty) Ltd.)
T3 sequence (P06276 29-602): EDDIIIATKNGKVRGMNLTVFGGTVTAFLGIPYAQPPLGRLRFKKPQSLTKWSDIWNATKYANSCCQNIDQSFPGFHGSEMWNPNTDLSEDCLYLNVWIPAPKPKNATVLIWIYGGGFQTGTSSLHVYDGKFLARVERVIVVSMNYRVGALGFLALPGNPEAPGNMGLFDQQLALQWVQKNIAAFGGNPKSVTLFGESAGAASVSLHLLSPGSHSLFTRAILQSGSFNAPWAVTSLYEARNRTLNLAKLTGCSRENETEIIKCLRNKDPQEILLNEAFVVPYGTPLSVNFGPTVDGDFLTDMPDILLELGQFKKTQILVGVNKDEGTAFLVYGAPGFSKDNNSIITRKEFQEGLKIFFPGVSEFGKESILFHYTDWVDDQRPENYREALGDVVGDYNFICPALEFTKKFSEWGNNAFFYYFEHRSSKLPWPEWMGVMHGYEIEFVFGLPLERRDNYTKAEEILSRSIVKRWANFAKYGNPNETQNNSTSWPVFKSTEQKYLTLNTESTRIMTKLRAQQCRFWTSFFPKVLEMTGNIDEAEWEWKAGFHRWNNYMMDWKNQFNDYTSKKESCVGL
Method: as §1, §2
A total of 8.0 μL of the test compound and 2.0 μL of BChE (0.02 mg/mL) was added to each of the designated wells of the 96-well plate, and the mixtures were incubated at room temperature for 30 min. Tris buffer (70 μL) was added to each well containing the reaction mixture and incubation was continued for a further 10 min at this temperature, which was followed by the addition of 10 μL solution of 5,5′-dithiobis-(2-nitrobenzoic acid) (DTNB) (3 mM in Tris buffer, 50 mM, pH 7.7) and butyrylcholine iodide (5 mM in Tris buffer, 50 mM, pH 7.7) to each well to initiate the reaction. […] The IC50 and standard deviation values using the Graph Pad Prism.

[7] = Cytotoxicity (MTT assay) on Vero cells
Method: (§3) The cytotoxicity activity of the compounds was evaluated using the 3-(4,5-dimethylthiazol-2-yl)-2,5-diphenyltetrazolium bromide (MTT) assay following a modification of a method by Mosmann. Normal monkey kidney cells (Vero cells) and adeno-carcinomic human epithelial cells (A549 cells) were maintained in Dulbecco’s modified Eagle’s medium (DMEM, Gibco) supplemented with 10% fetal bovine serum (FBS) and 1% penicillin/streptomycin in culture flasks and incubated at 37 °C in 5% CO2. […] Cells were seeded at 1 × 10^5 cells/well and incubated overnight to allow cell attachment. After 24 h, treatments were administered with different concentrations (0, 2.5, 5, 10, 25, 50, and 100 μM) of the compounds and doxorubicin (positive control). After 24 h of incubation, 20 μL of the MTT solution (5 mg/mL) was added in all the wells, which was followed by 4 h of incubation.

[8] = in vitro; conditions: human
Method: as §3

[9] = test system: Vero cells; assay: LPS-induced ROS production in Vero cells (H2DCF-DA); assay type: cell-based, monkey; conditions: 10 μM compound, LPS 1 μg/mL, 24 h (Figure 9a)
Method: (§4) Mitochondrial ROS levels in Vero and A549 cell lines was measured using the 2′,7′-dichlorofluorescin diacetate (H2DCF-DA) (Sigma-Aldrich, St. Louis, MO, USA, Merck, Darmstadt, Germany), fluorescent probe. Cells (1 × 10^5) were seeded in 96 well plates and incubated overnight at 37 °C in 5% CO2. A minimum non-toxic concentration (10 μM) of compounds (2a and 3b) was added separately as treatment and further incubated for an hour, after which LPS (1 μg/mL) was added to induce the production of ROS. After 24 h of incubation, the media was aspirated, cells were rinsed with PBS, and followed by the addition of H2DCF-DA (10 μM) for 30 min in the dark. The absorbance of the fluorescence was measured using a microplate reader (VarioSkan Flash, Thermo Fisher Scientific, Finland) at 485 and 535 nm values of excitation and emission, respectively. Data was processed and analysed using ANOVA, which was followed by Duncan’s multiple comparison test.

[10] = test system: A549 cells; assay: LPS-induced ROS production in A549 cells (H2DCF-DA); assay type: cell-based, human; conditions: 10 μM compound, LPS 1 μg/mL, 24 h (Figure 9b)
Method: as §4

| SMILES | IC50 [1] | IC50 [2] | IC50 [4] | IC50 [5] | IC50 [6] | further results |
| --- | --- | --- | --- | --- | --- | --- |
| O=C1O[C@H]([C@@H](O)CO)C(O)=C1O [Ascorbic acid, reference compound] | 4.18 ± 0.13 µM | 6.23 ± 0.13 µM | – | – | – | IC50 ([1]; listed as ascorbic acid): 4.2 µM; IC50 ([2]; listed as ascorbic acid): 6.2 µM |
| Oc1ccccc1/C=C/c1cc(O)c(F)c(O)c1 [C] | – | – | – | – | – | fold more active and selective against BChE than against AChE [3]: 94 fold |
| NC(=O)c1cc(/C=C/c2ccc(F)cc2)ccc1N [Compound 2b, (E)-2-Amino-5-(4-fluorostyryl)benzamide] | 12.9 ± 0.22 µM | 15.8 ± 0.3 µM | 5.4 ± 0.12 µM | 13.9 ± 0.25 µM | 19.7 ± 0.25 µM | – |
| NC(=O)c1cc(/C=C/c2ccc(Cl)cc2)ccc1N [Compound 2c, (E)-2-Amino-5-(4-chlorostyryl)benzamide] | 11.3 ± 0.11 µM | 9.3 ± 0.13 µM | 8.6 ± 0.42 µM | 6.7 ± 0.18 µM | 18.9 ± 0.24 µM | – |
| COc1ccc(/C=C/c2ccc(N)c(C(N)=O)c2)cc1 [Compound 2d, (E)-2-Amino-5-(4-methoxystyryl)benzamide] | 20.8 ± 0.24 µM | 11.2 ± 0.22 µM | 7.8 ± 0.3 µM | 17.2 ± 0.31 µM | 14.6 ± 0.47 µM | – |
| Cc1ccc(S(=O)(=O)Nc2ccc(/C=C/c3ccccc3)cc2C(N)=O)cc1 [Compound 3a, (E)-5-Styryl-2-[[(4-methylphenyl)sulfonyl]amino]benzamide] | 19.4 ± 0.4 µM | 13.1 ± 0.43 µM | 9.5 ± 0.53 µM | 16.5 ± 0.31 µM | 10.8 ± 0.4 µM | – |
| Cc1ccc(S(=O)(=O)Nc2ccc(/C=C/c3ccc(F)cc3)cc2C(N)=O)cc1 [Compound 3b, (E)-5-(4-Fluorostyryl)-2-[[(4-methylphenyl)sulfonyl]amino]benzamide] | 25.6 ± 0.3 µM | – | 4.3 ± 0.48 µM | 10.1 ± 0.18 µM | 8.1 ± 0.52 µM | IC50 at 24 h ([7]; monkey, Vero cells (normal monkey kidney cells)): 191.4 ± 0.6 µM; IC50 at 24 h ([8]; A549 cells (adeno-carcinomic human epithelial cells)): 55 ± 0.11 µM; suppression of LPS-induced ROS [9]: ~40%; ROS reduction (in words) [10]: significant ROS reduction |
| Cc1ccc(S(=O)(=O)Nc2ccc(/C=C/c3ccc(Cl)cc3)cc2C(N)=O)cc1 [Compound 3c, (E)-5-(4-Chlorostyryl)-2-[[(4-methylphenyl)sulfonyl]amino]benzamide] | 22.4 ± 0.51 µM | 8.6 ± 0.3 µM | 7.8 ± 0.21 µM | 15 ± 0.16 µM | 6.9 ± 0.1 µM | – |
| COc1ccc(/C=C/c2ccc(NS(=O)(=O)c3ccc(C)cc3)c(C(N)=O)c2)cc1 [Compound 3d, (E)-5-(4-Methoxystyryl)-2-[[(4-methylphenyl)sulfonyl]amino]benzamide] | 9.1 ± 0.26 µM | 12.3 ± 0.31 µM | 11.3 ± 0.23 µM | 19.3 ± 0.24 µM | 13.3 ± 0.26 µM | – |
| COc1cccc2c1C(=O)c1c(O)c3c(c(O)c1C2=O)C[C@@](O)(C(=O)CO)C[C@@H]3O[C@H]1C[C@H](N)[C@H](O)[C@H](C)O1 [Doxorubicin, reference compound] | – | – | – | – | – | IC50 at 24 h [7]: 0.66 ± 0.12 µM; IC50 at 24 h [8]: 1.14 ± 0.23 µM |
